# Source: patent US9695155B2, “Herbicidal substituted pyrimidinyloxy benzene compounds” (E. I. DU PONT DE NEMOURS AND COMPANY, priority 2013, dated 2017)
# Columns and labels:
# barnyardgrass = assay: Test A preemergence; type: in vivo, Echinochloa crus-galli
# How it was run: (§1)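 Visual 0–100 rating (100 = complete control) taken about 10 d post-treatment relative to untreated checks. Preemergence: directed soil spray on sown loam/sand pots. Postemergence: seedlings 2–10 cm, 1–2 leaf. Non-phytotoxic solvent formulation with surfactant.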
# yellow nutsedge = assay: Test C preemergence; type: in vivo, Cyperus esculentus
# How it was run: (§2)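 Sown in loam/sand → sprayed pre-emergence; or grown to 1–4 leaves in peat mix → sprayed post-emergence. Same solvent/surfactant formulation both ways. Greenhouse 13–15 d. Score 0–100 visual.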
# morningglory = assay: Test C preemergence; type: in vivo, Ipomoea coccinea
# How it was run: as §2
# oilseed rape = assay: Test C preemergence; type: in vivo, Brassica napus
# How it was run: as §2
# corn = assay: Test C preemergence; type: in vivo, Zea mays
# How it was run: as §2
# rice = assay: Test B flooded paddy test; type: in vivo, Oryza sativa; details: Flood, 250 g ai/ha, 0 to 100 scale where 0 is no effect and 100 is complete control
# How it was run: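 Greenhouse flooded-pot test: compounds dosed into 3 cm standing water over 2-leaf plants, flood held constant. Rated visually after 13–15 days on 0–100 (complete control = 100); a dash marks no test result.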
# galium = assay: Test C preemergence; type: in vivo, Galium aparine
# How it was run: as §2
# velvetleaf = assay: Test A postemergence; type: in vivo, Abutilon theophrasti; details: 0 to 100 scale where 0 is no effect and 100 is complete control; for Velvetleaf plant response rating: 125 g ai/ha; for Plant response rating, Velvetleaf: 500 g ai/ha
# How it was run: as §1
# [1] = 31 g ai/ha, 0 to 100 scale where 0 is no effect and 100 is complete control, visual, approximately 10 days
# [2] = 16 g ai/ha, preemergence, scale 0 to 100 (0 no effect, 100 complete control)
# [3] = 125 g ai/ha, preemergence, scale 0 (no effect) to 100 (complete control)
# [4] = Preemergence, 62 g ai/ha, scale 0 to 100, 0 no effect, 100 complete control
# [5] = 125 g ai/ha, 0 to 100 scale where 0 is no effect and 100 is complete control
# [6] = 500 g ai/ha, 0 to 100 scale where 0 is no effect and 100 is complete control
# [7] = 62 g ai/ha, preemergence, scale 0 (no effect) to 100 (complete control)
# [8] = Preemergence, 31 g ai/ha, scale 0 to 100, 0 no effect, 100 complete control
SMILES,"Barnyardgrass plant response rating (0 to 100 scale, 0 is no effect, 100 is complete control) (barnyardgrass; 125 g ai/ha)","Nutsedge, Yellow plant response rating (yellow nutsedge; [2])","Nutsedge, Yellow plant response rating (yellow nutsedge; [3])",Morningglory plant response rating (morningglory; [2]),Morningglory plant response rating (morningglory; [3]),"Plant response rating, Morningglory (morningglory; [4])",Oilseed Rape plant response rating (oilseed rape; [2]),Oilseed Rape plant response rating (oilseed rape; [3]),"Plant response rating, Oilseed Rape (oilseed rape; [4])",Corn plant response rating (corn; [2]),Corn plant response rating (corn; [3]),"Plant response rating, Corn (corn; [4])","Plant response rating, Rice (rice)",Galium plant response rating (galium; [2]),Galium plant response rating (galium; [3]),"Plant response rating, Galium (galium; [4])","Plant response rating, Barnyardgrass (barnyardgrass; [5])",Barnyardgrass plant response rating (barnyardgrass; [6]),"Nutsedge, Yellow plant response rating (yellow nutsedge; [7])",Morningglory plant response rating (morningglory; [7]),also measured
FCc1cccc(Oc2ncc(Cl)cn2)c1-n1cc(Cl)cn1 [Compound 250],90,0,5,0,50,50,100,100,100,0,10,0,0,0,98,70,,,,,"Plant response rating, Barnyardgrass (barnyardgrass; [1]): 10"
COc1cnn(-c2c(C#N)cccc2Oc2ncc(Cl)cn2)c1 [Compound 137],,0,10,25,90,,50,95,,0,10,,0,5,95,,20,100,5,45,"Oilseed Rape plant response rating (oilseed rape; [7]): 85; Corn plant response rating (corn; [7]): 5; Plant response rating, Corn (corn; [8]): 5; Galium plant response rating (galium; [7]): 10; Plant response rating, Galium (galium; [8]): 5"
"N#Cc1cccc(Oc2ncc(Cl)cn2)c1-n1cnc(C(F)(F)F)c1 [Compound 252, 3-[(5-chloro-2-pyrimidinyl)oxy]-2-[4-(trifluoromethyl)-1H-imidazol-1-yl]benzonitrile]",100,,,,,,,,,,,,,,,,,,,,"pest or weed control at 31 g/ha (barnyardgrass; Echinochloa crus-galli, pre-emergence, 240 h, 31 g ai/ha, 0 to 100 scale where 0 is no effect and 100 is complete control, visual, approximately 10 days, read-out: Plant response rating, Barnyardgrass): 70%; pest or weed control at 500 g/ha (barnyardgrass; Echinochloa crus-galli, pre-emergence, 240 h, 500 g ai/ha, 0 to 100 scale where 0 is no effect and 100 is complete control, read-out: Barnyardgrass plant response rating): 100%; pest or weed control at 16 g/ha (yellow nutsedge; Cyperus, pre-emergence, 16 g ai/ha, preemergence, scale 0 to 100 (0 no effect, 100 complete control), read-out: Nutsedge, Yellow plant response rating): 0%; pest or weed control at 125 g/ha (yellow nutsedge; Cyperus, pre-emergence, 125 g ai/ha, preemergence, scale 0 (no effect) to 100 (complete control), read-out: Nutsedge, Yellow plant response rating): 60%; pest or weed control at 62 g/ha (yellow nutsedge; Cyperus, pre-emergence, Preemergence, 62 g ai/ha, scale 0 to 100, 0 no effect, 100 complete control, read-out: Plant response rating, Nutsedge, Yellow): 40%; pest or weed control at 16 g/ha (morningglory; Ipomoea, pre-emergence, 16 g ai/ha, preemergence, scale 0 to 100 (0 no effect, 100 complete control), read-out: Morningglory plant response rating): 45%; pest or weed control at 125 g/ha (morningglory; Ipomoea, pre-emergence, 125 g ai/ha, preemergence, scale 0 (no effect) to 100 (complete control), read-out: Morningglory plant response rating): 100%; pest or weed control at 62 g/ha (morningglory; Ipomoea, pre-emergence, Preemergence, 62 g ai/ha, scale 0 to 100, 0 no effect, 100 complete control, read-out: Plant response rating, Morningglory): 95%; plant injury at 16 g/ha (oilseed rape; Brassica napus, pre-emergence, 16 g ai/ha, preemergence, scale 0 to 100 (0 no effect, 100 complete control), read-out: Oilseed Rape plant response rating): 80%; plant injury at 125 g/ha (oilseed rape; Brassica napus, pre-emergence, 125 g ai/ha, preemergence, scale 0 (no effect) to 100 (complete control), read-out: Oilseed Rape plant response rating): 100%; plant injury at 62 g/ha (oilseed rape; Brassica napus, pre-emergence, Preemergence, 62 g ai/ha, scale 0 to 100, 0 no effect, 100 complete control, read-out: Plant response rating, Oilseed Rape): 100%; plant injury at 16 g/ha (corn; Zea mays, pre-emergence, 16 g ai/ha, preemergence, scale 0 to 100 (0 no effect, 100 complete control), read-out: Corn plant response rating): 10%; plant injury at 125 g/ha (corn; Zea mays, pre-emergence, 125 g ai/ha, preemergence, scale 0 (no effect) to 100 (complete control), read-out: Corn plant response rating): 70%; Corn plant response rating (crop injury, 0 = no effect, 100 = complete kill) at 62 g/ha (corn; Zea mays, pre-emergence, Preemergence, 62 g ai/ha, scale 0 to 100, 0 no effect, 100 complete control): 40%; plant injury at 250 g/ha (rice; Oryza sativa, read-out: Plant response rating, Rice): 0%; pest or weed control at 16 g/ha (galium; Galium, pre-emergence, 16 g ai/ha, preemergence, scale 0 to 100 (0 no effect, 100 complete control), read-out: Galium plant response rating): 80%; pest or weed control at 125 g/ha (galium; Galium, pre-emergence, 125 g ai/ha, preemergence, scale 0 (no effect) to 100 (complete control), read-out: Galium plant response rating): 98%; pest or weed control at 62 g/ha (galium; Galium, pre-emergence, Preemergence, 62 g ai/ha, scale 0 to 100, 0 no effect, 100 complete control, read-out: Plant response rating, Galium): 90%"
CCOc1cnn(-c2ccccc2Oc2ncc(Cl)cn2)c1 [Compound 187],80,0,5,0,5,0,70,90,90,0,5,5,0,30,98,90,,100,,,"Plant response rating, Nutsedge, Yellow (yellow nutsedge; [4]): 5; Velvetleaf plant response rating (velvetleaf): 100; Plant response rating, Velvetleaf (velvetleaf): 100"
Fc1cccc(Oc2ncc(Cl)cn2)c1-n1cc(OCC(F)(F)F)cn1 [Compound 270],100,0,45,0,100,55,95,100,100,0,55,20,0,70,100,95,,,,,"Plant response rating, Barnyardgrass (barnyardgrass; [1]): 20; Plant response rating, Nutsedge, Yellow (yellow nutsedge; [4]): 15"
Fc1cccc(Oc2ncc(Cl)cn2)c1-n1cc(I)cn1 [Compound 179],,0,15,10,90,,60,100,,0,15,,0,90,100,,20,100,10,35,"Velvetleaf plant response rating (velvetleaf): 100; Plant response rating, Velvetleaf (velvetleaf): 100; Oilseed Rape plant response rating (oilseed rape; [7]): 98; Corn plant response rating (corn; [7]): 5; Plant response rating, Corn (corn; [8]): 5; Galium plant response rating (galium; [7]): 98; Plant response rating, Galium (galium; [8]): 95"
FCc1cccc(Oc2ncc(F)cn2)c1-n1cc(C(F)(F)F)cn1 [Compound 118],,0,70,40,100,,98,100,,10,85,,60,95,100,,100,,25,100,"Barnyardgrass plant response rating (0 to 100 scale) (barnyardgrass; 31 g ai/ha): 50; Plant response rating, Nutsedge, Yellow (yellow nutsedge; [8]): 5; Plant response rating, Morningglory (morningglory; [8]): 75; Oilseed Rape plant response rating (oilseed rape; [7]): 100; Plant response rating, Oilseed Rape (oilseed rape; [8]): 100; Corn plant response rating (corn; [7]): 70; Plant response rating, Corn (corn; [8]): 40; Galium plant response rating (galium; [7]): 100; Plant response rating, Galium (galium; [8]): 95"
